# Molecular target: T1, BlaC β-lactamase (Mycobacterium tuberculosis, UniProt P9WKD3)
# T1 sequence (P9WKD3 35-307): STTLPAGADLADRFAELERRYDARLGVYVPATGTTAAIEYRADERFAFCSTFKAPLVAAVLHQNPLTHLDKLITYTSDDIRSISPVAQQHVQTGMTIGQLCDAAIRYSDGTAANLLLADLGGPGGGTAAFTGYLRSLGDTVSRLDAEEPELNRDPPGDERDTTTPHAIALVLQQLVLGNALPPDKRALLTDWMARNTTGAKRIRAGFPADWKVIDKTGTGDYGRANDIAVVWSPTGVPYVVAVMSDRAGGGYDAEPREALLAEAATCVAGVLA
# Assay: biochemical
smiles,measurement,value
C[C@@H](O)[C@H]1C(=O)N2C(C(=O)O)=C(S[C@@H]3CN[C@H](C(=O)N(C)C)C3)[C@H](C)[C@H]12 [meropenem],Ki,1.1 ± 0.8 µM
